Here are results for eight molecules from PubChem BioAssay (NCI).

Among the test systems are SR leukemia; OVCAR-8 ovarian; IGROV1 ovarian; MDA-MB-231 breast; UO-31 renal; SN12C renal; CCRF-CEM leukemia; HS 578T breast; UACC-257 melanoma; NCI/ADR-RES ovarian.
What all share (assay): inhibition of tumour cell growth, NCI panel, 48 h

Values joined by “and” are separate entries in the source; they are usually repeats but may differ in a detail not shown here. Equal values may be shown once.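 These data come from cells grown in 96-well plates and exposed to compound for 48 hours at five concentrations. GI50 marks 50% less growth. TGI marks complete inhibition of growth.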

Consider `Cn1cc(C2=C(c3cn(C)c4c([N+](=O)[O-])cccc34)C(=O)NC2=O)c2ccccc21`, for which the GI50 with SR leukemia, in the test on OVCAR-8 ovarian, with IGROV1 ovarian, in the test on MDA-MB-231 breast, in the test on UO-31 renal and in the test with SN12C renal was more than 25 µM each time. The GI50 in the test with CCRF-CEM leukemia, with HS 578T breast, with UACC-257 melanoma and in the test with NCI/ADR-RES ovarian was more than 25 µM in each case. The TGI in the test on SR leukemia, in the test on OVCAR-8 ovarian, in the test with IGROV1 ovarian, in the test with MDA-MB-231 breast, in the test with UO-31 renal and in the test on SN12C renal was more than 25 µM throughout. The TGI in the test with CCRF-CEM leukemia, in the test on HS 578T breast, in the test with UACC-257 melanoma and with NCI/ADR-RES ovarian was more than 25 µM in each case.
For `CCN(CC)CCOc1ccccc1/C=C/c1noc2ccccc12`, the TGI in the test on SR leukemia turned out to be 68 µM; in the test with OVCAR-8 ovarian, 24.8 µM; with IGROV1 ovarian it was 22.3 µM; in the test with MDA-MB-231 breast, 25.7 µM; with UO-31 renal, 19.3 µM; in the test on SN12C renal, 24.6 µM. For the same molecule, the TGI in the test with CCRF-CEM leukemia stood at 81.6 µM; with HS 578T breast, 32.3 µM; in the test with UACC-257 melanoma, 15.3 µM; in the test on NCI/ADR-RES ovarian, 38.8 µM.
In the case of `O=[N+]([O-])c1ccc(Sc2ncnc3nc[nH]c23)c2nonc12`, the GI50 in the test with SR leukemia is 0.723 µM; in the test on OVCAR-8 ovarian, 7.23 µM; with IGROV1 ovarian it was 2.32 µM; in the test with MDA-MB-231 breast, 8.15 µM; in the test on UO-31 renal, 1.6 µM; in the test on SN12C renal, 18.1 µM. Besides, the GI50 was 1.78 µM in the test with CCRF-CEM leukemia, 15.4 µM in the test with HS 578T breast, 4.52 µM with UACC-257 melanoma and 5.16 µM with NCI/ADR-RES ovarian. The TGI is 13 µM in the test with SR leukemia; 28.9 µM with OVCAR-8 ovarian; 7.64 µM with IGROV1 ovarian; 24.2 µM in the test on MDA-MB-231 breast; 2.95 µM in the test on UO-31 renal; 53.1 µM in the test with SN12C renal. Moreover, the TGI in the test with CCRF-CEM leukemia is 5.14 µM; in the test on HS 578T breast it was 77 µM; with UACC-257 melanoma, 18.7 µM; in the test on NCI/ADR-RES ovarian it was 28.9 µM.
In the case of `O=C(c1ccccc1)c1ccc(Oc2ccc([N+](=O)[O-])cc2[N+](=O)[O-])cc1`, the GI50 in the test on SR leukemia was 2.6 µM; with OVCAR-8 ovarian, 3.39 µM; with IGROV1 ovarian, 2.39 µM; in the test on MDA-MB-231 breast, 6.74 µM; with UO-31 renal, 2.05 µM; in the test with SN12C renal, 3.25 µM. The GI50 in the test with CCRF-CEM leukemia is 2.89 µM; with HS 578T breast, 3.46 µM; with UACC-257 melanoma it was 7.05 µM; in the test with NCI/ADR-RES ovarian, 4.12 µM. The TGI in the test on SR leukemia was 7.79 µM; in the test with OVCAR-8 ovarian, 14.4 µM; in the test with IGROV1 ovarian, 5.61 µM; in the test with MDA-MB-231 breast it was 49.9 µM; with UO-31 renal it was 7.76 µM; with SN12C renal it was 19.1 µM. Besides, the TGI with CCRF-CEM leukemia is more than 100 µM; in the test with HS 578T breast it was 38.7 µM; in the test on UACC-257 melanoma, 29.2 µM; in the test with NCI/ADR-RES ovarian, 65.3 µM.
In the case of `O=CNc1ncn[nH]1`, the TGI in the test on SR leukemia, in the test with OVCAR-8 ovarian, with IGROV1 ovarian, in the test with MDA-MB-231 breast, with UO-31 renal and with SN12C renal was more than 100 µM in each case. For the same molecule, the TGI with CCRF-CEM leukemia, in the test with HS 578T breast, in the test on UACC-257 melanoma and in the test with NCI/ADR-RES ovarian was more than 100 µM in each case.
For `CC1(C)CCC2=C(O1)c1ccccc1C(=O)C2=O`, the GI50 in the test on SR leukemia is 3.99 µM; with OVCAR-8 ovarian it was 0.53 µM; in the test with IGROV1 ovarian it was 1.8 µM and 1.78 µM; with MDA-MB-231 breast, 2.01 µM; with UO-31 renal, 1.54 µM and 1.05 µM; with SN12C renal, 0.855 µM. The GI50 was 3.3 µM with CCRF-CEM leukemia; 1.56 µM in the test with UACC-257 melanoma; 0.445 µM and 0.481 µM with NCI/ADR-RES ovarian. The TGI with SR leukemia is more than 100 µM; in the test on OVCAR-8 ovarian, 2.27 µM and 1.59 µM; with IGROV1 ovarian it was 3.55 µM and 3.39 µM; with MDA-MB-231 breast, 5.55 µM and 1.67 µM; with UO-31 renal it was 2.89 µM and 2.23 µM; with SN12C renal it was 2.2 µM and 1.04 µM. For the same molecule, the TGI in the test with CCRF-CEM leukemia is more than 100 µM; with HS 578T breast, 6.32 µM and 0.643 µM; in the test with UACC-257 melanoma, 3.05 µM and 0.429 µM; in the test with NCI/ADR-RES ovarian, 2.69 µM and 1.8 µM.
As for `C/C(=C\CCc1ccoc1)CC/C=C(\C)CCCN1CCOCC1`, the GI50 is 3.12 µM in the test on SR leukemia; 13.7 µM in the test on OVCAR-8 ovarian; 15.4 µM with IGROV1 ovarian; 2.9 µM in the test with MDA-MB-231 breast; 10.3 µM in the test with UO-31 renal; 6.83 µM with SN12C renal. Moreover, the GI50 is 2.79 µM in the test with CCRF-CEM leukemia, 4.07 µM with HS 578T breast, 9.17 µM in the test on UACC-257 melanoma and 12.3 µM in the test with NCI/ADR-RES ovarian. For the same molecule, the TGI was 9.69 µM in the test with SR leukemia; 28 µM in the test on OVCAR-8 ovarian; 36.8 µM in the test on IGROV1 ovarian; 12.2 µM with MDA-MB-231 breast; 24.6 µM in the test on UO-31 renal; 21 µM in the test with SN12C renal. Besides, the TGI was determined as 11 µM with CCRF-CEM leukemia, 24.7 µM with HS 578T breast, 21.2 µM in the test on UACC-257 melanoma and 27.5 µM in the test with NCI/ADR-RES ovarian.
Take `CS(=O)(=O)Nc1ccc(-c2cc(-c3ccccc3)cc(C(N)=O)c2N)cc1`: the GI50 in the test on SR leukemia is 16.5 µM; in the test on OVCAR-8 ovarian, more than 22.6 µM; in the test on IGROV1 ovarian, more than 25 µM; in the test with MDA-MB-231 breast it was more than 25 µM; in the test on UO-31 renal, 14.7 µM; with SN12C renal, more than 25 µM. The GI50 with CCRF-CEM leukemia was 17.8 µM; in the test with HS 578T breast, more than 22.4 µM; in the test with UACC-257 melanoma it was more than 25 µM; in the test with NCI/ADR-RES ovarian, more than 25 µM. Moreover, the TGI with SR leukemia, in the test on OVCAR-8 ovarian, with IGROV1 ovarian, in the test with MDA-MB-231 breast, in the test on UO-31 renal and in the test with SN12C renal was more than 25 µM throughout. The TGI in the test with CCRF-CEM leukemia, in the test with HS 578T breast, with UACC-257 melanoma and with NCI/ADR-RES ovarian was more than 25 µM each time.
